Publication PMC10373199 (ACS Omega, 2023)
In brackets after ≈: the same amount, converted by molar mass. Like-named read-outs stand apart in the source and are kept apart here. Marks after values point to notes of the source that are not given here.

Key:
Ishikawa cells = test: AlkP activity in Ishikawa cells; assay type: cell-based, human; conditions: 72 h, DMSO set to 1
ovariectomized rats = test: Uterotrophic assay; assay type: in vivo, rat; conditions: 10 μg/kg BW/day s.c. for 3 days
EBOV = assay type: cell-based, Ebola virus; parameters: unit not given beside the values
in vitro = conditions: human
60 NCI tumor cell lines = test: NCI one-dose screen, mean over 60 tumor cell lines; assay type: cell-based; conditions: Homo sapiens, read-out: mean growth inhibition (%)
MCF-7 = test: NCI one-dose screen, MCF-7; assay type: cell-based; conditions: Homo sapiens, MCF7, read-out: growth inhibition on MCF-7 (%), 10 μM
60 different cell lines = test: NCI five-dose screen, mean/median over 60 cell lines; assay type: cell-based; conditions: Homo sapiens
CCRF-CEM = test: NCI five-dose screen, CCRF-CEM; assay type: cell-based; conditions: Homo sapiens
HL-60 (TB) = test: NCI five-dose screen, HL-60; assay type: cell-based; conditions: Homo sapiens
K-562 = test: NCI five-dose screen, K-562; assay type: cell-based; conditions: Homo sapiens, K562
MOLT-4 = test: NCI five-dose screen, MOLT-4; assay type: cell-based; conditions: Homo sapiens
RPMI-8226 = test: NCI five-dose screen, RPMI-8226; assay type: cell-based; conditions: Homo sapiens
SR = test: NCI five-dose screen, SR; assay type: cell-based; conditions: Homo sapiens
A549/ATCC = test: NCI five-dose screen, A549/ATCC; assay type: cell-based; conditions: Homo sapiens
EKVX = test: NCI five-dose screen, EKVX; assay type: cell-based; conditions: Homo sapiens
HOP-62 = test: NCI five-dose screen, HOP-62; assay type: cell-based; conditions: Homo sapiens
HOP-92 = test: NCI five-dose screen, HOP-92; assay type: cell-based; conditions: Homo sapiens
NCI-H226 = test: NCI five-dose screen, NCI-H226; assay type: cell-based; conditions: Homo sapiens
NCI-H23 = test: NCI five-dose screen, NCI-H23; assay type: cell-based; conditions: Homo sapiens
NCI-H322M = test: NCI five-dose screen, NCI-H322M; assay type: cell-based; conditions: Homo sapiens
NCI-H460 = test: NCI five-dose screen, NCI-H460; assay type: cell-based; conditions: Homo sapiens
NCI-H522 = test: NCI five-dose screen, NCI-H522; assay type: cell-based; conditions: Homo sapiens
COLO 205 = test: NCI five-dose screen, COLO 205; assay type: cell-based; conditions: Homo sapiens
HCC-2998 = test: NCI five-dose screen, HCC-2998; assay type: cell-based; conditions: Homo sapiens
HCT-116 = test: NCI five-dose screen, HCT-116; assay type: cell-based; conditions: Homo sapiens
HCT-15 = test: NCI five-dose screen, HCT-15; assay type: cell-based; conditions: Homo sapiens
HT29 = test: NCI five-dose screen, HT29; assay type: cell-based; conditions: Homo sapiens, HT-29
KM12 = test: NCI five-dose screen, KM12; assay type: cell-based; conditions: Homo sapiens
SW-620 = test: NCI five-dose screen, SW-620; assay type: cell-based; conditions: Homo sapiens
SF-268 = test: NCI five-dose screen, SF-268; assay type: cell-based; conditions: Homo sapiens
SF-295 = test: NCI five-dose screen, SF-295; assay type: cell-based; conditions: Homo sapiens
SF-539 = test: NCI five-dose screen, SF-539; assay type: cell-based; conditions: Homo sapiens
SNB-19 = test: NCI five-dose screen, SNB-19; assay type: cell-based; conditions: Homo sapiens
SNB-75 = test: NCI five-dose screen, SNB-75; assay type: cell-based; conditions: Homo sapiens
U251 = test: NCI five-dose screen, U251; assay type: cell-based; conditions: Homo sapiens, U-251
LOX IMVI = test: NCI five-dose screen, LOX IMVI; assay type: cell-based; conditions: Homo sapiens
MALME-3M = test: NCI five-dose screen, MALME-3M; assay type: cell-based; conditions: Homo sapiens
M14 = test: NCI five-dose screen, M14; assay type: cell-based; conditions: Homo sapiens
MDA-MB-435 = test: NCI five-dose screen, MDA-MB-435; assay type: cell-based; conditions: Homo sapiens
SK-MEL-2 = test: NCI five-dose screen, SK-MEL-2; assay type: cell-based; conditions: Homo sapiens
SK-MEL-28 = test: NCI five-dose screen, SK-MEL-28; assay type: cell-based; conditions: Homo sapiens
SK-MEL-5 = test: NCI five-dose screen, SK-MEL-5; assay type: cell-based; conditions: Homo sapiens
UACC-257 = test: NCI five-dose screen, UACC-257; assay type: cell-based; conditions: Homo sapiens
UACC-62 = test: NCI five-dose screen, UACC-62; assay type: cell-based; conditions: Homo sapiens
IGROV1 = test: NCI five-dose screen, IGROV1; assay type: cell-based; conditions: Homo sapiens, IGROV-1
OVCAR-3 = test: NCI five-dose screen, OVCAR-3; assay type: cell-based; conditions: Homo sapiens
OVCAR-4 = test: NCI five-dose screen, OVCAR-4; assay type: cell-based; conditions: Homo sapiens
OVCAR-5 = test: NCI five-dose screen, OVCAR-5; assay type: cell-based; conditions: Homo sapiens
OVCAR-8 = test: NCI five-dose screen, OVCAR-8; assay type: cell-based; conditions: Homo sapiens
NCI/ADR-RES = test: NCI five-dose screen, NCI/ADR-RES; assay type: cell-based; conditions: Homo sapiens
SK-OV-3 = test: NCI five-dose screen, SK-OV-3; assay type: cell-based; conditions: Homo sapiens
786–0 = test: NCI five-dose screen, 786–0; assay type: cell-based; conditions: Homo sapiens
A498 = test: NCI five-dose screen, A498; assay type: cell-based; conditions: Homo sapiens
ACHN = test: NCI five-dose screen, ACHN; assay type: cell-based; conditions: Homo sapiens
CAKI-1 = test: NCI five-dose screen, CAKI-1; assay type: cell-based; conditions: Homo sapiens
RXF 393 = test: NCI five-dose screen, RXF 393; assay type: cell-based; conditions: Homo sapiens
SN12C = test: NCI five-dose screen, SN12C; assay type: cell-based; conditions: Homo sapiens
TK-10 = test: NCI five-dose screen, TK-10; assay type: cell-based; conditions: Homo sapiens
UO-31 = test: NCI five-dose screen, UO-31; assay type: cell-based; conditions: Homo sapiens
PC-3 = test: NCI five-dose screen, PC-3; assay type: cell-based; conditions: Homo sapiens
DU-145 = test: NCI five-dose screen, DU-145; assay type: cell-based; conditions: Homo sapiens
MCF7 = test: NCI five-dose screen, MCF7; assay type: cell-based; conditions: Homo sapiens
MDA-MB-231/ATCC = test: NCI five-dose screen, MDA-MB-231/ATCC; assay type: cell-based; conditions: Homo sapiens
HS 578T = test: NCI five-dose screen, HS 578T; assay type: cell-based; conditions: Homo sapiens
BT-549 = test: NCI five-dose screen, BT-549; assay type: cell-based; conditions: Homo sapiens
T-47D = test: NCI five-dose screen, T-47D; assay type: cell-based; conditions: Homo sapiens, T47D
MDA-MB-468 = test: NCI five-dose screen, MDA-MB-468; assay type: cell-based; conditions: Homo sapiens
influenza A virus H1N1 = test: Influenza A virus H1N1 screening, visual CPE inhibition; assay type: cell-based, influenza A virus H1N1 (California/07/2009)

C[C@]12CC[C@@H]3c4ccc(O)cc4CC[C@H]3[C@@H]1CC[C@@H]2O [Compound E2, 17β-estradiol]
AlkP activity (Ishikawa cells; 10 nM): 6.86 ± 0.69 ^a
relative UWW, mean ± SD (ovariectomized rats): 3.85 ± 0.71 g/kg BW

NC(=O)c1nc(F)c[nH]c1=O [favipiravir]
SI90 (EBOV): >14
CC50 (in vitro): > 1000 µg/mL

CC/C(=C(\c1ccc(O)cc1)c1ccc(OCCN(C)C)cc1)c1ccccc1 [Compound 4-OH-TAM, 4-hydroxytamoxifen]
AlkP activity (Ishikawa cells; 1 μM): 1.73 ± 0.46
AlkP activity (Ishikawa cells; 10 μM): 0.60 ± 0.20

CC/C(=C(\c1ccccc1)c1ccc(OCCN(C)C)cc1)c1ccccc1 [TAM, Tamoxifen]
inhibition at 10 µM (60 NCI tumor cell lines): ≥ 100%
inhibition at 10 µM (MCF-7): ≥ 100%
AlkP activity (Ishikawa cells; 1 μM): 1.60 ± 0.55
AlkP activity (Ishikawa cells; 10 μM): 1.02 ± 0.37
GI50 (60 different cell lines; read-out: GI50, mean): 4.41 µM
GI50 (60 different cell lines; read-out: GI50, median): 3.98 µM
GI50 (CCRF-CEM): 3.16 µM
GI50 (HL-60 (TB)): 2.51 µM
GI50 (K-562): 1.99 µM
GI50 (MOLT-4): 2.51 µM
GI50 (RPMI-8226): 2.51 µM
GI50 (SR): 1.26 µM
GI50 (A549/ATCC): 3.98 µM
GI50 (EKVX): 6.31 µM
GI50 (HOP-62): 10 µM
GI50 (HOP-92): 2.52 µM
GI50 (NCI-H226): 10 µM
GI50 (NCI-H23): 5.01 µM
GI50 (NCI-H322M): 7.94 µM
GI50 (NCI-H460): 3.16 µM
GI50 (NCI-H522): 6.31 µM
GI50 (COLO 205): 2.15 µM
GI50 (HCC-2998): 3.16 µM
GI50 (HCT-116): 3.98 µM
GI50 (HCT-15): 3.16 µM
GI50 (HT29): 2.51 µM
GI50 (KM12): 3.16 µM
GI50 (SW-620): 3.16 µM
GI50 (SF-268): 6.31 µM
GI50 (SF-295): 1.96 µM
GI50 (SF-539): 5.01 µM
GI50 (SNB-19): 6.31 µM
GI50 (SNB-75): 5.01 µM
GI50 (U251): 3.16 µM
GI50 (LOX IMVI): 2.51 µM
GI50 (MALME-3M): 3.16 µM
GI50 (M14): 2.51 µM
GI50 (MDA-MB-435): 3.16 µM
GI50 (SK-MEL-2): 5.01 µM
GI50 (SK-MEL-28): 3.98 µM
GI50 (SK-MEL-5): 2.51 µM
GI50 (UACC-257): 3.16 µM
GI50 (UACC-62): 6.31 µM
GI50 (IGROV1): 5.01 µM
GI50 (OVCAR-3): 3.98 µM
GI50 (OVCAR-4): 6.31 µM
GI50 (OVCAR-5): 6.31 µM
GI50 (OVCAR-8): 7.94 µM
GI50 (NCI/ADR-RES): 5.01 µM
GI50 (SK-OV-3): 10 µM
GI50 (786–0): 3.98 µM
GI50 (A498): 6.31 µM
GI50 (ACHN): 6.31 µM
GI50 (CAKI-1): 3.98 µM
GI50 (RXF 393): 2.51 µM
GI50 (SN12C): 3.98 µM
GI50 (TK-10): 3.98 µM
GI50 (UO-31): 6.31 µM
GI50 (PC-3): 3.16 µM
GI50 (DU-145): 6.31 µM
GI50 (MCF7): 1.58 µM
GI50 (MDA-MB-231/ATCC): 6.31 µM
GI50 (HS 578T): 3.98 µM
GI50 (BT-549): 6.31 µM
GI50 (T-47D): 2.51 µM
GI50 (MDA-MB-468): 1.96 µM

NC(=O)c1ncn([C@@H]2O[C@H](CO)[C@@H](O)[C@H]2O)n1 [ribavirin]
EC50 (influenza A virus H1N1; Influenza A virus, H1N1, MDCK, read-out: EC50, visual CPE): 1 µg/mL (≈ 4.09 µM)
SI50 (CC50/EC50) (influenza A virus H1N1; visual CPE): >320 µg/mL
